Measurements: patent publication US8853242B2, “Nitrogenous-ring acylguanidine derivative” (Astellas Pharma Inc., priority 2009, dated 2014)
Where a name gives a salt, the structure may show the parent alone.

These molecules were tested against human 5-HT5A receptor (Homo sapiens (Human), UniProt P47898) (assay: Test on a human 5-HT5A receptor binding inhibition ([3H]5-CT)). Conditions: [3H]5-CT binding inhibition, membrane from HEK293 cells expressing human 5-HT5A receptor; Ki calculated from IC50.
Chain of human 5-HT5A receptor (P47898 whole entry): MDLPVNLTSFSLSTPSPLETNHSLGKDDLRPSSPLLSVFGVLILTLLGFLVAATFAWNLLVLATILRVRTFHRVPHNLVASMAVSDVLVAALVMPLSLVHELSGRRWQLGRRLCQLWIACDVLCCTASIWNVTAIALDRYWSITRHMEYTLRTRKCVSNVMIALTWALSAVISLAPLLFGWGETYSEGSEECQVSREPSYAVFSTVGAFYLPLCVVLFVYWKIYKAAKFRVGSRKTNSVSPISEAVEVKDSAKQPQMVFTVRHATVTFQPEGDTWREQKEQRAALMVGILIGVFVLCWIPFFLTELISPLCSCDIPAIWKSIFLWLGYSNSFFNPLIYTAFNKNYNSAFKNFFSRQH
Experimental: The ORF (open reading frame; protein coding region) of a human 5-HT5A receptor (Genbank AF498985) was cloned from a human hippocampus cDNA library, and then inserted into a pCR2.1 vector (Invitrogen), and Escherichia coli containing the plasmid was cultured in a large amount. Next, the full-length cDNA sequence of the human 5-HT5A receptor was analyzed, and recombined into a pCDNA3.1 vector (Invitrogen) as an expression vector and cultured in a large amount. HEK293 established cells (ATCC) derived from the human fetal kidney were seeded, the expression plasmid (1 μg) obtained above were added thereto with LIPOFECTAMINE 2000 (Invitrogen; 2 μl), the gene was transfected into HEK293 cells, and the expression cells were screened with a drug-resistant marker, Geneticin (G418 sulfate 500 μg/ml; Kanto Chemical Co., Inc.). Thus prepared recombinant cells which expressed the gene were cultured in a medium containing D-MEM (Dulbecco's modified eagle medium, Sigma), 10% FCS (Fetal calf serum: fetal bovine serum), 1% Pc./Sm (Penicillin/Streptomycin, Invitrogen), and 500 μg/ml G418 for 3 days. These experimental operations followed a manual for gene operation experiment and an instruction appended in a reagent, and the like, such as a known method (Sambrook, J. et al, Molecular Cloning-A Laboratory Manual”, Cold Spring Harabor laboratory, NY, 1989).
HEK293 cells for forced expressions of a human 5-HT5A receptor were cultured in a F500 plate, and scraped with a scraper. After centrifugation, the precipitate was collected, and an incubation buffer (50 mM Tris (HCl) (pH 7.4), 10 mM MgSO4, and 0.5 mM EDTA (ethylenediamine tetraacetic acid)) was added thereto. After homogenization, it was further centrifuged, and the incubation buffer was added to the precipitate, followed by thoroughly suspending. The operation was repeated, and protein concentration was measured, thereby completing preparation of the membrane.
A solution of the compound to be tested and 100 μM 5-CT (5-carboxamidetriptamine) in DMSO was added to a 96-well plate at 2 μl/well, suspended in an incubation buffer, and a membrane from HEK293 cells for forced expressions of a human 5-HT5A receptor prepared at 200 μg/ml was added at 100 μl/well. After incubation at room temperature for 15 minutes, a [^3H]5-CT solution (2 nM [^3H]5-CT, incubation buffer) was added thereto at 100 μl/well.
Separately, 100 μl of the solution was distributed into a liquid scintillation vial, and 2 ml of Aquasol II (registered trademark) was added thereto, followed by stirring. Then, radioactivity was measured by a liquid scintillation counter. It was incubated at 37° C. for 60 minutes. The reaction mixture was sucked into 96-well GF/C filter plate that had been pre-treated with 0.2% polyethyleneimine, and washed six times with an ice-cooled, 50 mM Tris (pH 7.5) buffer. The GF/C filter plate was dried.
Microscint TMPS (registered trademark) was added thereto at 40 μl/well. Radioactivity remaining on the GF/C filter plate was measured by a top counter.
The [^3H]5-CT binding inhibiting activity by the compound to be tested in each experiment was determined as an IC50 value with a radioactivity upon addition of DMSO alone being 0% inhibition, and a radioactivity upon addition of 1 μM 5-CT being 100% inhibition. Separately, Ki values were calculated from the Kd value of the [^3H]5-CT determined from Scatchard analysis, by the following equation. Ki=IC50(1+Concentraion of ligand added/Kd(4.95 nM))

SMILES | Ki
Cc1cc(-c2c(F)cc(F)cc2F)c2cc(C(=O)N=C(N)N)ccc2n1 [Example 6] | 13 nM
NC(N)=NC(=O)c1ccc2ncc(Cl)c(-c3ccc(F)cc3F)c2c1 [Example 60] | 1.3 nM

Same assay, conditions: [3H]5-CT binding, membrane from HEK293 cells expressing human 5-HT5A receptor; Ki calculated from IC50

SMILES | Ki
NC(N)=NC(=O)c1ccc2ccnc(-c3c(F)cc(F)cc3F)c2c1 [Example 1, N-(diaminomethylene)-1-(2,4,6-trifluorophenyl)isoquinoline-7-carboxamide dihydrochloride] | 1 to 10 nM
NC(N)=NC(=O)c1ccc2c(CO)cnc(-c3c(F)cc(F)cc3F)c2c1 [Example 2, N-(diaminomethylene)-4-(hydroxymethyl)-1-(2,4,6-trifluorophenyl)isoquinoline-7-carboxamide fumarate] | 10 to 100 nM
CN/C(N)=N/C(=O)c1ccc2nccc(-c3c(F)cc(F)cc3F)c2c1 [Example 3, N-[1-amino(methylamino)methylene]-4-(2,4,6-trifluorophenyl)quinoline-6-carboxamide dihydrochloride] | 1 to 10 nM
NC(N)=NC(=O)c1ccc2nccc(-c3ccccc3)c2c1 [Example 4] | 10 to 100 nM
NC(N)=NC(=O)c1ccc2nccc(-c3c(F)cc(F)cc3F)c2c1 [Example 5] | 1 to 10 nM
Cc1cc(-c2c(F)cc(F)cc2F)c2cc(C(=O)N=C(N)N)ccc2n1 [Example 6] | 10 to 100 nM
Cc1cc(-c2c(F)cccc2Cl)c2cc(C(=O)N=C(N)N)ccc2n1 [Example 7] | 10 to 100 nM
NC(N)=NC(=O)c1ccc2nccc(-c3c(F)cc(F)cc3Cl)c2c1 [Example 8] | 1 to 10 nM
NC(N)=NC(=O)c1ccc2nccc(-c3c(F)cccc3Cl)c2c1 [Example 11] | 1 to 10 nM
N#Cc1ccccc1-c1ccnc2ccc(C(=O)N=C(N)N)cc12 [Example 12] | 100 to 300 nM
NC(N)=NC(=O)c1ccc2nccc(-c3c(F)cc(Cl)cc3F)c2c1 [Example 13] | 1 to 10 nM
NC(N)=NC(=O)c1ccc2nccc(-c3ccc(Cl)cc3F)c2c1 [Example 14] | 10 to 100 nM
NC(N)=NC(=O)c1ccc2nccc(-c3ccc(F)cc3Cl)c2c1 [Example 15] | 1 to 10 nM
Cc1cnc2ccc(C(=O)N=C(N)N)cc2c1-c1c(F)cc(F)cc1F [Example 17] | 1 to 10 nM
NC(N)=NC(=O)c1ccc2nccc(-c3cc(Cl)ccc3Cl)c2c1 [Example 18] | 10 to 100 nM
NC(N)=NC(=O)c1ccc2nccc(-c3c(Cl)cccc3Cl)c2c1 [Example 19] | 1 to 10 nM
NC(N)=NC(=O)c1ccc2nccc(-c3cc(Cl)c(F)cc3F)c2c1 [Example 20] | 10 to 100 nM
NC(N)=NC(=O)c1ccc2nccc(-c3cc(Cl)ccc3F)c2c1 [Example 22] | 10 to 100 nM
Cc1cnc2ccc(C(=O)N=C(N)N)cc2c1-c1c(F)cc(F)cc1Cl [Example 23] | 1 to 10 nM
Cc1cnc2ccc(C(=O)N=C(N)N)cc2c1-c1cccc(Cl)c1Cl [Example 24] | 1 to 10 nM
NC(N)=NC(=O)c1ccc2nccc(-c3cc(C(F)(F)F)ccc3F)c2c1 [Example 25] | 10 to 100 nM
NC(N)=NC(=O)c1ccc2nccc(-c3c(Cl)cc(Cl)cc3Cl)c2c1 [Example 27] | 1 to 10 nM

SMILES | Ki
NC(N)=NC(=O)c1ccc2nccc(-c3cccc(C(F)(F)F)c3F)c2c1 [Example 28] | 10 to 100 nM
NC(=O)c1cc(-c2c(F)cc(F)cc2F)c2cc(C(=O)N=C(N)N)ccc2n1 [Example 30] | 10 to 100 nM
Cc1cnc2ccc(C(=O)N=C(N)N)cc2c1-c1ccc(F)cc1F [Example 31] | 1 to 10 nM
Cc1cnc2ccc(C(=O)N=C(N)N)cc2c1-c1c(F)cccc1F [Example 32] | 1 to 10 nM
N#Cc1ccc(-c2ccnc3ccc(C(=O)N=C(N)N)cc23)cc1 [Example 33] | 10 to 100 nM
COc1cc(C#N)ccc1-c1ccnc2ccc(C(=O)N=C(N)N)cc12 [Example 36] | 10 to 100 nM
NC(N)=NC(=O)c1ccc2nccc(-c3ccc(F)c(C(F)(F)F)c3)c2c1 [Example 37] | 100 to 300 nM
Cc1cc(C(=O)N=C(N)N)cc2c(-c3c(F)cc(F)cc3F)ccnc12 [Example 39] | 1 to 10 nM
Cc1cc(C(=O)N=C(N)N)cc2c(-c3c(F)cccc3F)ccnc12 [Example 42] | 1 to 10 nM
NC(N)=NC(=O)c1cc(Cl)c2nccc(-c3c(F)cc(F)cc3F)c2c1 [Example 43] | 10 to 100 nM
Cc1cc(C(=O)N=C(N)N)cc2c(-c3ccc(F)cc3F)ccnc12 [Example 44] | 1 to 10 nM
Cc1cc(C(=O)N=C(N)N)cc2c(-c3ccc(Cl)cc3Cl)ccnc12 [Example 45] | 10 to 100 nM
Cc1cc(C(=O)N=C(N)N)cc2c(-c3cccc(Cl)c3Cl)ccnc12 [Example 46] | 1 to 10 nM
Cc1cnc2ccc(C(=O)N=C(N)N)cc2c1-c1ccccc1F [Example 51] | 1 to 10 nM
NC(N)=NC(=O)c1ccc2nccc(-c3c(F)cncc3F)c2c1 [Example 52] | 10 to 100 nM
NC(N)=NC(=O)c1cc(F)c2nccc(-c3c(F)cc(F)cc3F)c2c1 [Example 54] | 10 to 100 nM
Cc1cc(C(=O)N=C(N)N)cc2c(-c3c(Cl)cccc3Cl)ccnc12 [Example 55] | 1 to 10 nM
COc1cc(F)c(-c2ccnc3c(C)cc(C(=O)N=C(N)N)cc23)c(F)c1 [Example 58] | 1 to 10 nM
COc1cc(F)c(-c2ccnc3ccc(C(=O)N=C(N)N)cc23)c(F)c1 [Example 59] | 10 to 100 nM
Cc1cnc2ccc(C(=O)N=C(N)N)cc2c1-c1cccc(F)c1Cl [Example 61] | 1 to 10 nM
NC(N)=NC(=O)c1ccc2nccc(C3=CCCCC3)c2c1 [Example 62] | 1 to 10 nM
NC(N)=NC(=O)c1ccc2nccc(-c3cc(F)ccc3Cl)c2c1 [Example 63] | 10 to 100 nM

SMILES | Ki
Cc1cc(C(=O)N=C(N)N)cc2c(-c3cc(F)ccc3Cl)ccnc12 [Example 64] | 10 to 100 nM
Cc1cc(C(=O)N=C(N)N)cc2c(-c3c(F)cc(F)cc3Cl)ccnc12 [Example 65] | 1 to 10 nM
Cc1cc(C(=O)N=C(N)N)cc2c(-c3ccc(Cl)cc3F)ccnc12 [Example 67] | 1 to 10 nM
Cc1ccc(-c2ccnc3c(C)cc(C(=O)N=C(N)N)cc23)c(F)c1 [Example 68] | 10 to 100 nM
NC(N)=NC(=O)c1ccc2ncc(Cl)c(-c3ccccc3F)c2c1 [Example 69] | 1 to 10 nM
COc1ccc(-c2ccnc3c(C)cc(C(=O)N=C(N)N)cc23)c(Cl)c1 [Example 70] | 1 to 10 nM
Cc1cc(C(=O)N=C(N)N)cc2c(C3CC3)ccnc12 [Example 71] | 10 to 100 nM
NC(N)=NC(=O)c1ccc2ncc(Cl)c(-c3ccccc3)c2c1 [Example 74] | 1 to 10 nM
Cc1cc(C(=O)N=C(N)N)cc2c(C3=CCCC3)ccnc12 [Example 75] | 10 to 100 nM
NC(N)=NC(=O)c1ccc2ncc(Cl)c(C3CC3)c2c1 [Example 76] | 10 to 100 nM
COc1cc(Cl)ccc1-c1ccnc2c(C)cc(C(=O)N=C(N)N)cc12 [Example 77] | 1 to 10 nM
COc1ccc(F)c(-c2ccnc3c(C)cc(C(=O)N=C(N)N)cc23)c1F [Example 78] | 10 to 100 nM
Cc1cc(-c2ccccc2F)c2cc(C(=O)N=C(N)N)ccc2n1 [Example 82] | 10 to 100 nM
Cc1cc(-c2c(F)cc(F)cc2F)c2cc(C(=O)N=C(N)N)cc(C)c2n1 [Example 83] | 1 to 10 nM
Cc1cc(-c2ccc(F)cc2F)c2cc(C(=O)N=C(N)N)cc(C)c2n1 [Example 85] | 1 to 10 nM
NC(N)=NC(=O)c1ccc2ncc(C(F)(F)F)c(-c3ccc(F)cc3F)c2c1 [Example 86] | 10 to 100 nM
CCc1cc(-c2c(F)cc(F)cc2F)c2cc(C(=O)N=C(N)N)ccc2n1 [Example 87] | 10 to 100 nM
Cc1nc2ccc(C(=O)N=C(N)N)cc2c(-c2ccc(F)cc2F)c1Cl [Example 88] | 1 to 10 nM
Cc1nc2ccc(C(=O)N=C(N)N)cc2c(-c2ccccc2F)c1Cl [Example 89] | 1 to 10 nM
NC(N)=NC(=O)c1ccc2nc(C(F)(F)F)cc(-c3c(F)cc(F)cc3F)c2c1 [Example 90] | 10 to 100 nM
Cc1cc(-c2ccc(F)cc2Cl)c2cc(C(=O)N=C(N)N)cc(C)c2n1 [Example 91] | 1 to 10 nM
